Experiments:
Assay type in all cases: cell-based
MB cells = assay: IR dose-response, alamarBlue cell viability assay; settings: IR for 24 hours, normalized to 0 Gy
From the text: (§1) FIG. 13C-D show representative immunofluorescence images showing 53BP1 foci in D556Med cells transfected with miR-NC or miR-584-5p mimic (C) or scramble-siRNA or eIF4E3/HDAC1-siRNAs (D) and treated with or without 10 Gy of IR.
VCR is routinely used during and after radiation therapy to treat MB patients (Packer, R. J. et al. J Neurosurg 74, 433-440, (1991)), mainly because microtubule-targeting agents such as VCR enhances the toxic effects of DNA-damaging agents, including radiation (Poruchynsky, M. S. et al. Proc Natl Acad Sci USA 112, 1571-1576, (2015); and Oehler, C. et al. Neuro Oncol 13, 1000-1010, doi:10.1093/neuonc/nor069 (2011)). Moreover, cells in G2/M phase are the most sensitive to IR (Pawlik, T. M. & Keyomarsi, K. Int J Radiat Oncol Biol Phys 59, 928-942, (2004)). […] All values were normalized to 0 Gy. […] Error bars represent mean±SEM. Next, it was determined whether eIF4E3 or HDAC1 may mediate miR-584-5p's IR response. […] All values were normalized to 0 Gy. […] Error bars represent mean±SEM.

[1] = tested on: activated CHK1, ATR, BRCA1; assay: Western blot of checkpoint proteins; settings: miR-584-5p mimic-transfected MB cells
Protocol: as §1
Immunofluorescence and Western blot analysis Immunofluorescence analyses was carried out on cells fixed in 4% paraformaldehyde (Imam, J. S. et al. PLoS One 7, e52397, (2012)). Western blot analysis was performed on cell extracts from miR-584-5p mimic- or target gene siRNA-transfected MB cell lines in accordance with previously reported studies (Rajamanickam, S. et al. Clin Cancer Res 22, 3524-3536, (2016); and Imam, J. S. et al. PLoS One 7, e52397, (2012). Antibodies against horseradish peroxidase-conjugated β-actin (1:50,000; #A5316), β-tubulin (#T8328), and glyceraldehyde-3-phosphate dehydrogenase (GAPDH) (1:25,000; #G9295) were purchased from Sigma-Aldrich. Antibody against eIF4E3 (1:1000; #17282-1-AP) was purchased from Proteintech. Antibodies against HDAC1 (1:1000; #5356), pCHK1 (1:1000; #2348), and CHK1 (1:1000; #2360) were purchased from Cell Signaling Technology (Danvers, Mass., USA). Antibodies against MYC (1:1000; #Sc-40), BRCA1 (1:1000; #6954), and ATR (1:1000; #sc-515173) were purchased from Santa Cruz. Antibody against 53BP1 (1:300; #A300-272AT) was purchased from Bethyl Laboratories. […]

c-Myc = assay: qPCR and Western blot of c-Myc; settings: c-Myc-amplified MB cells
Protocol: Immunofluorescence and Western blot analysis Immunofluorescence analyses was carried out on cells fixed in 4% paraformaldehyde (Imam, J. S. et al. PLoS One 7, e52397, (2012)). […]
Because c-Myc supports cancer stem cell growth, promotes radioresistance (Gravina, G. L. et al. Radiat Res 185, 411-422, (2016)), and has elevated levels in VCR-resistant cancer cells (He, Y., Zhang, J., Zhang, J. & Yuan, Y. Chin Med J (Engl) 113, 848-851 (2000)), it was tested whether miR-584-5p and its target genes may regulate c-Myc-amplified MB growth and therapy sensitization by targeting c-Myc levels/functions. […] In FIG. 14D, the p-values were calculated using standard Student t-tests. […] To test that possibility, it was assessed whether miR-584-5p target genes may regulate c-Myc levels in MB. […] Cell viability was assessed using alamarBlue. The p-value was calculated using one-way ANOVA followed by Sidak's multiple-comparisons test. […]

“miR-584-5p: microRNA mimic; nucleotide sequence UUAUGGUUUGCCUGGGACUGAG (SEQ ID NO: 1); purchased from Thermofisher (chemistry not given here)” was tested, and the “sensitivity to IR relative to scrambled-transfected cells” value (MB cells) was 10 fold, the “levels of activated CHK1 and ATR, as well as BRCA1” value [1] was “significantly lower levels” and the c-Myc levels (c-Myc) was “significantly reduced expression of c-Myc”.

— patent US20210071180A1, “MICRORNA 584-5P COMPOSITIONS AND METHODS FOR TREATING CANCER” (BOARD OF REGENTS, THE UNIVERSY OF TEXAS SYSTEM, priority 2018, published 2021)
